5 compounds from ChEMBL document CHEMBL1201862, “PubChem BioAssay data set” (2004) can be followed below.

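Compound exposure: 48 hours, 5 concentrations, 96-well plates. Abbreviation: GI50, concentration required for 50% inhibition of growth.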 Activity calls are given as the source filed them. No stated cut-off is given here; in the data, active = GI50 up to about 1.1 µM and inactive = higher.

Test systems include SNB-75; UO-31; OVCAR-4; TK-10; OVCAR-8; NCI-H460; HCC 2998; CAKI-1; OVCAR-3; KM12; NCI/ADR-RES; MDA-MB-231; HCT-116; SK-MEL-2; NCI-H226; NCI-H23; SK-MEL-28; SF-539; DU-145; U-251.
Common to all, as to test: growth of human tumour cells (NCI), 48 h

Take `CCOC(=O)c1ccc(/N=c2\oc3ccc(OC)cc3cc2-c2nc3ccccc3[nH]2)cc1`: the GI50 with SNB-75 was 14.1 µM (inactive); in the assay with UO-31, > 100 µM (inactive); in the assay with OVCAR-4, > 100 µM (inactive); with TK-10, > 100 µM (inactive); with OVCAR-8, 4.21 µM (inactive); in the assay on NCI-H460, > 100 µM (inactive). Further, the GI50 in the assay on HCC 2998 is 86.5 µM (inactive); in the assay with CAKI-1 it was > 100 µM (inactive); with OVCAR-3, > 100 µM (inactive); in the assay with KM12 it was > 100 µM (inactive); with NCI/ADR-RES it was > 100 µM (inactive); in the assay with MDA-MB-231 it was 53.7 µM (inactive). For the same compound, the GI50 was > 100 µM (inactive) in the assay with HCT-116; > 100 µM (inactive) in the assay on SK-MEL-2; 0.516 µM (active) with NCI-H226; 10.4 µM (inactive) with NCI-H23; > 100 µM (inactive) in the assay with SK-MEL-28; 1.99 µM (inactive) in the assay on SF-539. The GI50 with DU-145 was > 100 µM (inactive); with U-251, 31.4 µM (inactive).

Turning to `O=[N+]([O-])c1cc2no[n+]([O-])c2cc1N1CCCCC1`, the GI50 with SNB-75 is 2.39 µM (inactive); in the assay with UO-31, 2.07 µM (inactive); in the assay on OVCAR-4, 2.25 µM (inactive); with TK-10, 3.33 µM (inactive); in the assay with OVCAR-8 it was 1.95 µM (inactive); with NCI-H460, 15.6 µM (inactive). In addition, the GI50 is 13.2 µM (inactive) in the assay on HCC 2998; 3.35 µM (inactive) in the assay with CAKI-1; 1.92 µM (inactive) with OVCAR-3; 13.4 µM (inactive) in the assay on KM12; 3.15 µM (inactive) in the assay on NCI/ADR-RES; 8.47 µM (inactive) in the assay with MDA-MB-231. Besides, the GI50 in the assay with HCT-116 was 1.93 µM (inactive); in the assay with SK-MEL-2 it was 7.05 µM (inactive); in the assay on NCI-H226, 39.8 µM (inactive); with NCI-H23, 12.5 µM (inactive); in the assay on SK-MEL-28, 7.28 µM (inactive); in the assay on SF-539 it was 2.39 µM (inactive). Moreover, the GI50 with DU-145 was 2.45 µM (inactive); in the assay on U-251, 3.93 µM (inactive).

Take `COc1ccccc1Cn1nc(OC)c2cc([N+](=O)[O-])ccc21`: the GI50 was 4.16 µM (inactive) with SNB-75; > 35.1 µM (inactive) in the assay with UO-31; 13.4 µM (inactive) in the assay with OVCAR-4; 12.5 µM (inactive) in the assay with TK-10; 31.1 µM (inactive) with OVCAR-8; 66.7 µM (inactive) in the assay with NCI-H460. The GI50 with HCC 2998 was > 100 µM (inactive); with CAKI-1, 15 µM (inactive); in the assay on OVCAR-3 it was > 100 µM (inactive); in the assay on KM12 it was > 100 µM (inactive); in the assay with NCI/ADR-RES it was 59.3 µM (inactive); with MDA-MB-231 it was > 41.1 µM (inactive). The GI50 with HCT-116 was 32.7 µM (inactive); in the assay with SK-MEL-2, 19.7 µM (inactive); with NCI-H226 it was 42.1 µM (inactive); with NCI-H23 it was 35.6 µM (inactive); in the assay with SK-MEL-28 it was > 91 µM (inactive); in the assay with SF-539 it was 13.8 µM (inactive). Further, the GI50 with DU-145 is > 100 µM (inactive); in the assay with U-251, 12 µM (inactive).

On to `CC(NC(=O)c1ccc(OP(=O)(OCc2ccc([N+](=O)[O-])o2)N(C)CCCCCl)cc1)c1ccc(OCC2CCCCC2)c(C(N)=O)c1` (stereo not given), for which the GI50 in the assay with SNB-75 was 4.56 µM (inactive); with UO-31, 1.83 µM (inactive); in the assay with OVCAR-4, 2.35 µM (inactive); in the assay with TK-10, 6.43 µM (inactive); with OVCAR-8, 4.49 µM (inactive); in the assay on NCI-H460, 3.27 µM (inactive). For the same compound, the GI50 in the assay with HCC 2998 is 3.14 µM (inactive); with CAKI-1, 12.4 µM (inactive); with OVCAR-3, 2.57 µM (inactive); with KM12 it was 3.36 µM (inactive); in the assay with NCI/ADR-RES, > 36.6 µM (inactive); in the assay on MDA-MB-231, 2.58 µM (inactive). Moreover, the GI50 was 2.88 µM (inactive) in the assay with HCT-116; 3.05 µM (inactive) in the assay on SK-MEL-2; 3.98 µM (inactive) in the assay with NCI-H226; 5.19 µM (inactive) in the assay with NCI-H23; 2.3 µM (inactive) in the assay on SK-MEL-28; 2.56 µM (inactive) with SF-539. Moreover, the GI50 in the assay on DU-145 is 4.27 µM (inactive); with U-251 it was 4.29 µM (inactive).

With `CC(Oc1ccccc1Cl)C(=O)NN1C(=O)CC(=O)N(c2ccc(Cl)cc2)C1=S` (stereo not given), the GI50 was 47.5 µM (inactive) in the assay on SNB-75; 37.1 µM (inactive) in the assay with UO-31; 28.1 µM (inactive) with OVCAR-4; 54.7 µM (inactive) in the assay on TK-10; 38.8 µM (inactive) in the assay with OVCAR-8; 39.3 µM (inactive) in the assay with NCI-H460. In addition, the GI50 was 50.9 µM (inactive) in the assay with HCC 2998; 40.7 µM (inactive) with CAKI-1; 38.4 µM (inactive) with OVCAR-3; 47.6 µM (inactive) in the assay on KM12; 36.1 µM (inactive) in the assay with NCI/ADR-RES; 40.4 µM (inactive) with MDA-MB-231. The GI50 in the assay on HCT-116 is 32.1 µM (inactive); in the assay with SK-MEL-2 it was 27.9 µM (inactive); with NCI-H226, 52.8 µM (inactive); in the assay on NCI-H23, 38 µM (inactive); with SK-MEL-28 it was 94.6 µM (inactive); with SF-539 it was 75.5 µM (inactive). Also, the GI50 in the assay with DU-145 is 34.6 µM (inactive); with U-251, 39.4 µM (inactive).
